From ChEMBL document CHEMBL1145498, “A systematic interaction map of validated kinase inhibitors with Ser/Thr kinases” (Proc Natl Acad Sci U S A, 2007)

Biological target: Serine/threonine-protein kinase 26 (Homo sapiens) (UniProt Q9P289)
Sequence (Q9P289 2-416 limits assumed): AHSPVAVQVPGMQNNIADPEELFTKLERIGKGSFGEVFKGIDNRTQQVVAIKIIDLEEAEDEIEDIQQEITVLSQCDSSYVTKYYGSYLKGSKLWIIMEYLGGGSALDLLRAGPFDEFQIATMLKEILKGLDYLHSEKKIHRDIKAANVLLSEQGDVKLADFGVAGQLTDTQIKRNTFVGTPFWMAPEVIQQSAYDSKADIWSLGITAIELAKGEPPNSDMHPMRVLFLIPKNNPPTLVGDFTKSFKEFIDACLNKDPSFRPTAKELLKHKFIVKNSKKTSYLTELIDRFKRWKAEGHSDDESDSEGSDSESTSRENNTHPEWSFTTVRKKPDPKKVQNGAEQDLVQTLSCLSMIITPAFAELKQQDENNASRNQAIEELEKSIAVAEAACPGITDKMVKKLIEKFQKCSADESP

ΔTm [°C] | Compound
0.8 | COc1ccc(CNc2nc(N(CCO)CCO)nc3c2ncn3C(C)C)cc1
0 | O=S(=O)(c1cccc2c(Cl)cccc12)N1CCCNCC1
6.3 | CN(C)S(=O)(=O)c1ccc2c(c1)/C(=C/c1cc3c([nH]1)CCCC3)C(=O)N2

Biological target: T1, Mitogen-activated protein kinase kinase kinase 5 (Homo sapiens) (UniProt Q99683)
T1 sequence (whole entry): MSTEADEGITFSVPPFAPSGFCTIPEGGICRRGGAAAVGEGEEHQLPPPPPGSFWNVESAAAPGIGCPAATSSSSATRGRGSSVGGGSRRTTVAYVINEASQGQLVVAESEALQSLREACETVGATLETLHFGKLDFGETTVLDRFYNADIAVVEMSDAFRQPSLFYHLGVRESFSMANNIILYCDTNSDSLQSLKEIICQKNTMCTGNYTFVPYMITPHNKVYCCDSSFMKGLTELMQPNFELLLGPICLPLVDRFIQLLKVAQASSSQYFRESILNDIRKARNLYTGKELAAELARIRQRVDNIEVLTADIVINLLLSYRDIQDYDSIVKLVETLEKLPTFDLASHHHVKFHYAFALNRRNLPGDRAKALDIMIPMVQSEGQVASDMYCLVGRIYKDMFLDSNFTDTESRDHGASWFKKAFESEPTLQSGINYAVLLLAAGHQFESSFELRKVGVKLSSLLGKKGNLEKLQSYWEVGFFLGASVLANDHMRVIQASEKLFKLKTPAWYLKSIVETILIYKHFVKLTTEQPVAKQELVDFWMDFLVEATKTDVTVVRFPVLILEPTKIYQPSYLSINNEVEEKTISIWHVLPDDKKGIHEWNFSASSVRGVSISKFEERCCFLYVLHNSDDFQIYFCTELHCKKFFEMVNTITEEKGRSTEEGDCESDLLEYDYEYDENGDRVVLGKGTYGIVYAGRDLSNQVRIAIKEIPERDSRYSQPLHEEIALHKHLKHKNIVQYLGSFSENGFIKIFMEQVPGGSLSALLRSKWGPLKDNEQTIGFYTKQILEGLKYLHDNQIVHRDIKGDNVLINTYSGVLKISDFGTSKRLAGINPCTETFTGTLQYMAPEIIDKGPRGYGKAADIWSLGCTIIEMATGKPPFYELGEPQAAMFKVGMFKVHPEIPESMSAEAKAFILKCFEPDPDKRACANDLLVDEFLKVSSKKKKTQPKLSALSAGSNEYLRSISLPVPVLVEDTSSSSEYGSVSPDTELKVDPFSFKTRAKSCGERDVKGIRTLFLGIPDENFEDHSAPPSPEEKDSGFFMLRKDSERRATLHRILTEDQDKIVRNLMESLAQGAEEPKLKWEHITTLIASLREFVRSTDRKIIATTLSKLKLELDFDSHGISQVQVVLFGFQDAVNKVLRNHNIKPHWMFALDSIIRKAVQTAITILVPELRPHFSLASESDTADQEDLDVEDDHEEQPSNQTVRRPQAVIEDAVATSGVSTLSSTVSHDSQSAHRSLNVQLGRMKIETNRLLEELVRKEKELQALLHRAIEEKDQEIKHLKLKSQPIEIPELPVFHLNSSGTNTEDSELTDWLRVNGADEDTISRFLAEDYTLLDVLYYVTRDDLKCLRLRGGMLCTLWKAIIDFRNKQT

ΔTm [°C] | Compound
2 | COc1ccc(CNc2nc(N(CCO)CCO)nc3c2ncn3C(C)C)cc1
0.6 | O=S(=O)(c1cccc2c(Cl)cccc12)N1CCCNCC1
1.2 | CN(C)S(=O)(=O)c1ccc2c(c1)/C(=C/c1cc3c([nH]1)CCCC3)C(=O)N2

Biological target: cAMP-dependent protein kinase catalytic subunit alpha (Homo sapiens) (UniProt P17612)

ΔTm [°C] | Compound
0.5 | COc1ccc(CNc2nc(N(CCO)CCO)nc3c2ncn3C(C)C)cc1
1.4 | O=S(=O)(c1cccc2c(Cl)cccc12)N1CCCNCC1
2.5 | CN(C)S(=O)(=O)c1ccc2c(c1)/C(=C/c1cc3c([nH]1)CCCC3)C(=O)N2

Biological target: Serine/threonine-protein kinase 38 (Homo sapiens) (UniProt Q15208)
Sequence (Q15208 2-465 limits assumed): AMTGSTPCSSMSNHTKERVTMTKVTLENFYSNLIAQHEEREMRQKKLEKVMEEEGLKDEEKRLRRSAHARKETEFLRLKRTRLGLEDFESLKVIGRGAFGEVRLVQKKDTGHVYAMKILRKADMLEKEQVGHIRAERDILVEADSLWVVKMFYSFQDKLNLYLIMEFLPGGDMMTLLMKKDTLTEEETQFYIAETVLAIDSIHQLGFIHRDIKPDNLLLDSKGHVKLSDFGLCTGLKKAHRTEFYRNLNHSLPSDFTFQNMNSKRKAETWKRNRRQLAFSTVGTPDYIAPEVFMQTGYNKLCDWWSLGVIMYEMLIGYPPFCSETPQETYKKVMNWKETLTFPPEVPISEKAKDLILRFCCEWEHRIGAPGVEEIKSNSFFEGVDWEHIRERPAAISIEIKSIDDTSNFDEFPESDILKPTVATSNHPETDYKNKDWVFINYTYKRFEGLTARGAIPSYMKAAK

ΔTm [°C] | Compound
0.4 | COc1ccc(CNc2nc(N(CCO)CCO)nc3c2ncn3C(C)C)cc1
0.3 | O=S(=O)(c1cccc2c(Cl)cccc12)N1CCCNCC1
2.2 | CN(C)S(=O)(=O)c1ccc2c(c1)/C(=C/c1cc3c([nH]1)CCCC3)C(=O)N2

Biological target: Calcium/calmodulin-dependent protein kinase kinase 2 (Homo sapiens, UniProt Q96RR4)

ΔTm [°C] | Compound
1.2 | COc1ccc(CNc2nc(N(CCO)CCO)nc3c2ncn3C(C)C)cc1
-0.8 | O=S(=O)(c1cccc2c(Cl)cccc12)N1CCCNCC1
7.6 | CN(C)S(=O)(=O)c1ccc2c(c1)/C(=C/c1cc3c([nH]1)CCCC3)C(=O)N2

Biological target: Serine/threonine-protein kinase 10 (Homo sapiens) (UniProt O94804)
Sequence (O94804 whole entry, looked up): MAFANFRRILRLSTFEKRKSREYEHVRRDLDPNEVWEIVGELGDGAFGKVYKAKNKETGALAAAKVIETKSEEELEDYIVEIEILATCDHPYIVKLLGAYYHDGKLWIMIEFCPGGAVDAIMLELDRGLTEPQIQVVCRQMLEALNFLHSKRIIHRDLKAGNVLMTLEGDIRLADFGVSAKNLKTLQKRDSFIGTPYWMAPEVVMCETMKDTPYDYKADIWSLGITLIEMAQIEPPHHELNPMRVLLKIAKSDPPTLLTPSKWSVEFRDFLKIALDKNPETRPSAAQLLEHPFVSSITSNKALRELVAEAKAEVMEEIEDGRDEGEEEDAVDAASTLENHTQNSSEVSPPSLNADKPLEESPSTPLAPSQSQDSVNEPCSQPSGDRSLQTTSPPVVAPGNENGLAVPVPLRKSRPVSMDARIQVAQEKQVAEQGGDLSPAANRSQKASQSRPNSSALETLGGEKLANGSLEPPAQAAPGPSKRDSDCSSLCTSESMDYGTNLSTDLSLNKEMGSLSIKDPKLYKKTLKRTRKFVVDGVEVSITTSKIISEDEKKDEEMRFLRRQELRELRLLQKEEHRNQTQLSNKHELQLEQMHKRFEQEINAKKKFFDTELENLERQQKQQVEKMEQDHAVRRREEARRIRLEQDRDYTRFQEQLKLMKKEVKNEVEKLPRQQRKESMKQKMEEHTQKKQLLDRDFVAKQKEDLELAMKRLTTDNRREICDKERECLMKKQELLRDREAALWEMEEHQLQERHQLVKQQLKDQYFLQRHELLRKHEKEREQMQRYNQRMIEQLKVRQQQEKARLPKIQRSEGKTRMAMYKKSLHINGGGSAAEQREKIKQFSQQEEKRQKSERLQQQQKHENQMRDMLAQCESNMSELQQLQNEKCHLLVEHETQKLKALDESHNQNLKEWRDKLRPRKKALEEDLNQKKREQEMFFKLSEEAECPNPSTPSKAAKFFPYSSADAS

ΔTm [°C] | Compound
0.7 | COc1ccc(CNc2nc(N(CCO)CCO)nc3c2ncn3C(C)C)cc1
0.4 | O=S(=O)(c1cccc2c(Cl)cccc12)N1CCCNCC1
7.7 | CN(C)S(=O)(=O)c1ccc2c(c1)/C(=C/c1cc3c([nH]1)CCCC3)C(=O)N2

Biological target: Serine/threonine-protein kinase PAK 6 (Homo sapiens) (UniProt Q9NQU5)
Sequence (Q9NQU5 whole entry, looked up): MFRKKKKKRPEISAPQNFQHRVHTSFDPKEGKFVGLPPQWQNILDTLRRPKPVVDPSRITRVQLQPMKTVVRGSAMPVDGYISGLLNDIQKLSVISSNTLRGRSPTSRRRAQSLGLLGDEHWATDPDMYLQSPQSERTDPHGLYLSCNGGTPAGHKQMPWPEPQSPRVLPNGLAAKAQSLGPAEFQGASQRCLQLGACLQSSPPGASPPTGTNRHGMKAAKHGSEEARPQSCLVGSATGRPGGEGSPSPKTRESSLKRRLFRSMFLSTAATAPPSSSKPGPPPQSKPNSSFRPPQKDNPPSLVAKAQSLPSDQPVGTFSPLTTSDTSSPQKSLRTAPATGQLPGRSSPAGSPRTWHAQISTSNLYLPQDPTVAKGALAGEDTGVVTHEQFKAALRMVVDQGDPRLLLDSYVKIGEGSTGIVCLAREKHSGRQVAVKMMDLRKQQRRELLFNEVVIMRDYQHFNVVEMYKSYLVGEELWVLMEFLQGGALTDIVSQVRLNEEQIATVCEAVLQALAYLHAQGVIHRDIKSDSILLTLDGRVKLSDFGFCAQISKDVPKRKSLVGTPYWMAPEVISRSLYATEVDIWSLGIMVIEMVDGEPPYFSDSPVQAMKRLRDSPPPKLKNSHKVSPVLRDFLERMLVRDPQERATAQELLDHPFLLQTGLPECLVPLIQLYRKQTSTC

ΔTm [°C] | Compound
1.2 | COc1ccc(CNc2nc(N(CCO)CCO)nc3c2ncn3C(C)C)cc1
-0.1 | O=S(=O)(c1cccc2c(Cl)cccc12)N1CCCNCC1
-4.4 | CN(C)S(=O)(=O)c1ccc2c(c1)/C(=C/c1cc3c([nH]1)CCCC3)C(=O)N2

Biological target: Casein kinase I isoform gamma-3 (Homo sapiens) (UniProt Q9Y6M4)

ΔTm [°C] | Compound
1.7 | COc1ccc(CNc2nc(N(CCO)CCO)nc3c2ncn3C(C)C)cc1
0.1 | O=S(=O)(c1cccc2c(Cl)cccc12)N1CCCNCC1
0.6 | CN(C)S(=O)(=O)c1ccc2c(c1)/C(=C/c1cc3c([nH]1)CCCC3)C(=O)N2

Biological target: Tyrosine-protein kinase JAK1 (Homo sapiens) (UniProt P23458)
Sequence (P23458 whole entry): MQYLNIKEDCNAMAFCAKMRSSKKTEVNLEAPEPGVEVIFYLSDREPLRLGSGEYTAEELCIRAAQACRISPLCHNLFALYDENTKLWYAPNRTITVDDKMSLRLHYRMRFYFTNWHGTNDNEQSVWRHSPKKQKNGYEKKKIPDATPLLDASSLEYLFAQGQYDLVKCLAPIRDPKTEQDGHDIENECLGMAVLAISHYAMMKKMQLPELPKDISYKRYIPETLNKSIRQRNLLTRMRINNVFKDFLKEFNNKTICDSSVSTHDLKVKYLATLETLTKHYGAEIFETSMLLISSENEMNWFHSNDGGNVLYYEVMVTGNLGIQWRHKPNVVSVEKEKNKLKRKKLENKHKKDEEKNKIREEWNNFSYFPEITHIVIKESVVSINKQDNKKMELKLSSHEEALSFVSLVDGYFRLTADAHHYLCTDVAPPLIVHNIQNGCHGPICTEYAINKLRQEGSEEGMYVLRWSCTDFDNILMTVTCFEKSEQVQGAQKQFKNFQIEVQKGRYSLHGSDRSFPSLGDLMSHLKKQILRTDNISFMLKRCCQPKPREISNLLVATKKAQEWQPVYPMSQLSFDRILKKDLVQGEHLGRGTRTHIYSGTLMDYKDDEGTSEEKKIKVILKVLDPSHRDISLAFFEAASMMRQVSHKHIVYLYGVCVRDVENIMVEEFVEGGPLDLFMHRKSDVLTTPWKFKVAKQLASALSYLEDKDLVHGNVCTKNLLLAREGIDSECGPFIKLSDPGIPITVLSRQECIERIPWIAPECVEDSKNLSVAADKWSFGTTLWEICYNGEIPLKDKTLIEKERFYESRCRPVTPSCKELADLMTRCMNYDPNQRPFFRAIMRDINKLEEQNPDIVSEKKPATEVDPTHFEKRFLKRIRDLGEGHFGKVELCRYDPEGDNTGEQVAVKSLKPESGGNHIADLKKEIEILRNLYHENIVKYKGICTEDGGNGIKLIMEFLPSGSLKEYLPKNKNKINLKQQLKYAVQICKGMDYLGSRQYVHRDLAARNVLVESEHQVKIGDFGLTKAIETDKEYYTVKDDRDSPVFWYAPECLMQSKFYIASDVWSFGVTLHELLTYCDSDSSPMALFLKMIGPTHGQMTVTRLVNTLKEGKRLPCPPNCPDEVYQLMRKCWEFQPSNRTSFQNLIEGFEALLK

ΔTm [°C] | Compound
0.2 | COc1ccc(CNc2nc(N(CCO)CCO)nc3c2ncn3C(C)C)cc1
0 | O=S(=O)(c1cccc2c(Cl)cccc12)N1CCCNCC1
3.6 | CN(C)S(=O)(=O)c1ccc2c(c1)/C(=C/c1cc3c([nH]1)CCCC3)C(=O)N2

Biological target: T2, Serine/threonine-protein kinase VRK3 (Homo sapiens) (UniProt Q8IV63)
T2 sequence (whole entry): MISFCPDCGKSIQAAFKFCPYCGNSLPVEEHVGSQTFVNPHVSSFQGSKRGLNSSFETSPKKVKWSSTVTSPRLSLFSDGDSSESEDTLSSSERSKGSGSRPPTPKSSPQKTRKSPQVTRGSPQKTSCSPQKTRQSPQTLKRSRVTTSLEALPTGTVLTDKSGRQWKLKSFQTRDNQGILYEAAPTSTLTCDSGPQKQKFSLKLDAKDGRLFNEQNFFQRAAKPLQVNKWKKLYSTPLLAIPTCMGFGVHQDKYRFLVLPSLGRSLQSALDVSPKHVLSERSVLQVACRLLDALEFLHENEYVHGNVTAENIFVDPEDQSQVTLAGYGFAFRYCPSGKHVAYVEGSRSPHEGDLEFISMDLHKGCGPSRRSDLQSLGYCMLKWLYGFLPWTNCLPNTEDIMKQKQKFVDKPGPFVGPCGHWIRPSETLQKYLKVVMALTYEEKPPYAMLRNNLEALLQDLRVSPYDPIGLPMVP

ΔTm [°C] | Compound
0.4 | COc1ccc(CNc2nc(N(CCO)CCO)nc3c2ncn3C(C)C)cc1
0.1 | O=S(=O)(c1cccc2c(Cl)cccc12)N1CCCNCC1
1.5 | CN(C)S(=O)(=O)c1ccc2c(c1)/C(=C/c1cc3c([nH]1)CCCC3)C(=O)N2

Biological target: 5'-AMP-activated protein kinase catalytic subunit alpha-2 (Homo sapiens) (UniProt P54646)
Sequence (P54646 whole entry, looked up): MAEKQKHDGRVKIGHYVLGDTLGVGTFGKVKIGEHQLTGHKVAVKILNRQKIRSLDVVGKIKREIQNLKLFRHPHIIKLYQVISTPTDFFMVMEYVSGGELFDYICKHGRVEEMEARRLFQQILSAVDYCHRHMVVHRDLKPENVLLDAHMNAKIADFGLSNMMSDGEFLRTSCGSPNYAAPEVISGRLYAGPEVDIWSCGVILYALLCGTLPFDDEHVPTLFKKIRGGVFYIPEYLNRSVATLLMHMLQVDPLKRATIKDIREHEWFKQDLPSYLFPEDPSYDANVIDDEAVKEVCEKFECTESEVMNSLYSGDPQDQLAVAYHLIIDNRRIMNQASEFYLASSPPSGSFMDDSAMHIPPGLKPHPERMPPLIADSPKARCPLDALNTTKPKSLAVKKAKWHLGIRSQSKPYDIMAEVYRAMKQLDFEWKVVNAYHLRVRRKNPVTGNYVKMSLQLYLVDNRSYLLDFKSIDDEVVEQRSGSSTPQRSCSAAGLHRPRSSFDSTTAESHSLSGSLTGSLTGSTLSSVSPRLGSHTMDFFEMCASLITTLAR

ΔTm [°C] | Compound
0.6 | COc1ccc(CNc2nc(N(CCO)CCO)nc3c2ncn3C(C)C)cc1
-0.4 | O=S(=O)(c1cccc2c(Cl)cccc12)N1CCCNCC1
6.7 | CN(C)S(=O)(=O)c1ccc2c(c1)/C(=C/c1cc3c([nH]1)CCCC3)C(=O)N2

Biological target: T3, Serine/threonine-protein kinase 17A (Homo sapiens) (UniProt Q9UEE5)
T3 sequence (whole entry): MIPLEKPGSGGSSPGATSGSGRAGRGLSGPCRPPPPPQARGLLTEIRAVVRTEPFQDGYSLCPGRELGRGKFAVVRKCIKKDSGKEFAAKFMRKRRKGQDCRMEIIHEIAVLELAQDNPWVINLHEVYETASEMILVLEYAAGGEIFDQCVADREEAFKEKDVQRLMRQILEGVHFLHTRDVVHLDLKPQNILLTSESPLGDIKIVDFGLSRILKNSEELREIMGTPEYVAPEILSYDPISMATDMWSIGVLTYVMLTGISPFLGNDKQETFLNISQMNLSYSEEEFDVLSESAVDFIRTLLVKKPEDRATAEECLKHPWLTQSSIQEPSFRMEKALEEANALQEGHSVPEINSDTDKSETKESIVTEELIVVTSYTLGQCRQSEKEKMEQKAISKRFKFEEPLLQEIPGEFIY

ΔTm [°C] | Compound
-0.2 | COc1ccc(CNc2nc(N(CCO)CCO)nc3c2ncn3C(C)C)cc1
0.7 | O=S(=O)(c1cccc2c(Cl)cccc12)N1CCCNCC1
3.3 | CN(C)S(=O)(=O)c1ccc2c(c1)/C(=C/c1cc3c([nH]1)CCCC3)C(=O)N2

Biological target: Serine/threonine-protein kinase pim-2 (Homo sapiens, UniProt Q9P1W9)
Sequence (Q9P1W9 whole entry, looked up): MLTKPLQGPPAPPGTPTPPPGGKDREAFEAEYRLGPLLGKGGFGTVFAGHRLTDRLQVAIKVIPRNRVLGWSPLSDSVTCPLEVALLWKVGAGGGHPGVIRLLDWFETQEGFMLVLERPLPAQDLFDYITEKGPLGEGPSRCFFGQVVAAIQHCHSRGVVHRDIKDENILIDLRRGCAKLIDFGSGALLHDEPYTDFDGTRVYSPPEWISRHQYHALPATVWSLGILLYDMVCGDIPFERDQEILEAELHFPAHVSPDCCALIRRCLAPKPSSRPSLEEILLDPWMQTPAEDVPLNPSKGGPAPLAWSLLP

ΔTm [°C] | Compound
0.3 | COc1ccc(CNc2nc(N(CCO)CCO)nc3c2ncn3C(C)C)cc1
1.7 | O=S(=O)(c1cccc2c(Cl)cccc12)N1CCCNCC1
0.4 | CN(C)S(=O)(=O)c1ccc2c(c1)/C(=C/c1cc3c([nH]1)CCCC3)C(=O)N2

Biological target: Cyclin-dependent kinase 16 (Homo sapiens) (UniProt Q00536)

ΔTm [°C] | Compound
-0.3 | COc1ccc(CNc2nc(N(CCO)CCO)nc3c2ncn3C(C)C)cc1
-0.4 | O=S(=O)(c1cccc2c(Cl)cccc12)N1CCCNCC1
0.1 | CN(C)S(=O)(=O)c1ccc2c(c1)/C(=C/c1cc3c([nH]1)CCCC3)C(=O)N2

Biological target: Serine/threonine-protein kinase Nek6 (Homo sapiens) (UniProt Q9HC98)
Sequence (Q9HC98 whole entry): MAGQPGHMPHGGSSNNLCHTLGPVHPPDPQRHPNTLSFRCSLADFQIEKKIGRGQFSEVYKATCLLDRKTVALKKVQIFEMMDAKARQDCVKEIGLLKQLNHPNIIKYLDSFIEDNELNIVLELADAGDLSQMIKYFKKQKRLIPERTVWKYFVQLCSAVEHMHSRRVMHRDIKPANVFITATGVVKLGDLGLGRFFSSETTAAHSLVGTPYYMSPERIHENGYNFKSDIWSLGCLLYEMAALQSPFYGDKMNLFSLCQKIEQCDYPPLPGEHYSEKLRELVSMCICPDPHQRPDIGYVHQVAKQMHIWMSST

ΔTm [°C] | Compound
0.3 | COc1ccc(CNc2nc(N(CCO)CCO)nc3c2ncn3C(C)C)cc1
0 | O=S(=O)(c1cccc2c(Cl)cccc12)N1CCCNCC1
0.8 | CN(C)S(=O)(=O)c1ccc2c(c1)/C(=C/c1cc3c([nH]1)CCCC3)C(=O)N2
